Assay results as given in patent US20250114345A1, “COMPOUNDS AND COMPOSITIONS AS CBP/P300 DEGRADERS AND USES THEREOF” (Oncopia Therapeutics, Inc. d/b/a/ SK Life Science Labs, priority 2023, published 2025).

Molecular target: T1, p300 (Homo sapiens, UniProt Q09472)
T1 construct: host or cells: A549 P300 HiBit cells
Assay: P300 degradation, HiBit technology in A549 P300 HiBit cells (2 h)
Assay type: cell-based
Conditions: 2 hrs post treatment; for Dmax: A549, A549 P300 HiBit cells; for DC50: A549 P300 HiBit cells
Description: p300 and CBP degradation potency and Dmax were determined using in cell western (ICW) assay technology in H1299 cells or HiBit technology in A549 HiBit cells.
A549 P300 HiBit and A549 CBP HiBit cells were plated in separate 384-well, TC treated, white-opaque, flat-bottomed microplate. Cells were plated at a cell density of 0.2×10^4 cells per well in assay media comprised of F-12K, 10% heat inactivated FBS, and 1% penicillin/streptomycin. Assay microplates containing HiBit cells were placed in a 37° C., 5% CO2, tissue culture incubator and left to equilibrate overnight. The next day cells were treated with serial dilutions of test compound made up of 10 mM stock solutions in DMSO. 384-Well plates containing treated cells were then placed back into a 37° C., 5% CO2, tissue culture incubator. Assay microplates containing A549 P300 HiBit cells were incubated for 2 hrs post treatment before P300 destruction was assessed, while microplates containing A549 CBP HiBit cells were incubated for 24 hrs post treatment before CBP destruction was determined. On the day of each assay time point, microplates were removed from the tissue culture incubator and prepared HiBit Lytic detection buffer (Promega, cat #N3O40) was added to each plate. Plates were covered with aluminum foil and incubated for ten minutes at room temperature on an orbital shaker. After incubation, luminescent signal of each plate was measured using the Envision instrument (Perkin Elmer).

T1 sequence (Q09472 whole entry): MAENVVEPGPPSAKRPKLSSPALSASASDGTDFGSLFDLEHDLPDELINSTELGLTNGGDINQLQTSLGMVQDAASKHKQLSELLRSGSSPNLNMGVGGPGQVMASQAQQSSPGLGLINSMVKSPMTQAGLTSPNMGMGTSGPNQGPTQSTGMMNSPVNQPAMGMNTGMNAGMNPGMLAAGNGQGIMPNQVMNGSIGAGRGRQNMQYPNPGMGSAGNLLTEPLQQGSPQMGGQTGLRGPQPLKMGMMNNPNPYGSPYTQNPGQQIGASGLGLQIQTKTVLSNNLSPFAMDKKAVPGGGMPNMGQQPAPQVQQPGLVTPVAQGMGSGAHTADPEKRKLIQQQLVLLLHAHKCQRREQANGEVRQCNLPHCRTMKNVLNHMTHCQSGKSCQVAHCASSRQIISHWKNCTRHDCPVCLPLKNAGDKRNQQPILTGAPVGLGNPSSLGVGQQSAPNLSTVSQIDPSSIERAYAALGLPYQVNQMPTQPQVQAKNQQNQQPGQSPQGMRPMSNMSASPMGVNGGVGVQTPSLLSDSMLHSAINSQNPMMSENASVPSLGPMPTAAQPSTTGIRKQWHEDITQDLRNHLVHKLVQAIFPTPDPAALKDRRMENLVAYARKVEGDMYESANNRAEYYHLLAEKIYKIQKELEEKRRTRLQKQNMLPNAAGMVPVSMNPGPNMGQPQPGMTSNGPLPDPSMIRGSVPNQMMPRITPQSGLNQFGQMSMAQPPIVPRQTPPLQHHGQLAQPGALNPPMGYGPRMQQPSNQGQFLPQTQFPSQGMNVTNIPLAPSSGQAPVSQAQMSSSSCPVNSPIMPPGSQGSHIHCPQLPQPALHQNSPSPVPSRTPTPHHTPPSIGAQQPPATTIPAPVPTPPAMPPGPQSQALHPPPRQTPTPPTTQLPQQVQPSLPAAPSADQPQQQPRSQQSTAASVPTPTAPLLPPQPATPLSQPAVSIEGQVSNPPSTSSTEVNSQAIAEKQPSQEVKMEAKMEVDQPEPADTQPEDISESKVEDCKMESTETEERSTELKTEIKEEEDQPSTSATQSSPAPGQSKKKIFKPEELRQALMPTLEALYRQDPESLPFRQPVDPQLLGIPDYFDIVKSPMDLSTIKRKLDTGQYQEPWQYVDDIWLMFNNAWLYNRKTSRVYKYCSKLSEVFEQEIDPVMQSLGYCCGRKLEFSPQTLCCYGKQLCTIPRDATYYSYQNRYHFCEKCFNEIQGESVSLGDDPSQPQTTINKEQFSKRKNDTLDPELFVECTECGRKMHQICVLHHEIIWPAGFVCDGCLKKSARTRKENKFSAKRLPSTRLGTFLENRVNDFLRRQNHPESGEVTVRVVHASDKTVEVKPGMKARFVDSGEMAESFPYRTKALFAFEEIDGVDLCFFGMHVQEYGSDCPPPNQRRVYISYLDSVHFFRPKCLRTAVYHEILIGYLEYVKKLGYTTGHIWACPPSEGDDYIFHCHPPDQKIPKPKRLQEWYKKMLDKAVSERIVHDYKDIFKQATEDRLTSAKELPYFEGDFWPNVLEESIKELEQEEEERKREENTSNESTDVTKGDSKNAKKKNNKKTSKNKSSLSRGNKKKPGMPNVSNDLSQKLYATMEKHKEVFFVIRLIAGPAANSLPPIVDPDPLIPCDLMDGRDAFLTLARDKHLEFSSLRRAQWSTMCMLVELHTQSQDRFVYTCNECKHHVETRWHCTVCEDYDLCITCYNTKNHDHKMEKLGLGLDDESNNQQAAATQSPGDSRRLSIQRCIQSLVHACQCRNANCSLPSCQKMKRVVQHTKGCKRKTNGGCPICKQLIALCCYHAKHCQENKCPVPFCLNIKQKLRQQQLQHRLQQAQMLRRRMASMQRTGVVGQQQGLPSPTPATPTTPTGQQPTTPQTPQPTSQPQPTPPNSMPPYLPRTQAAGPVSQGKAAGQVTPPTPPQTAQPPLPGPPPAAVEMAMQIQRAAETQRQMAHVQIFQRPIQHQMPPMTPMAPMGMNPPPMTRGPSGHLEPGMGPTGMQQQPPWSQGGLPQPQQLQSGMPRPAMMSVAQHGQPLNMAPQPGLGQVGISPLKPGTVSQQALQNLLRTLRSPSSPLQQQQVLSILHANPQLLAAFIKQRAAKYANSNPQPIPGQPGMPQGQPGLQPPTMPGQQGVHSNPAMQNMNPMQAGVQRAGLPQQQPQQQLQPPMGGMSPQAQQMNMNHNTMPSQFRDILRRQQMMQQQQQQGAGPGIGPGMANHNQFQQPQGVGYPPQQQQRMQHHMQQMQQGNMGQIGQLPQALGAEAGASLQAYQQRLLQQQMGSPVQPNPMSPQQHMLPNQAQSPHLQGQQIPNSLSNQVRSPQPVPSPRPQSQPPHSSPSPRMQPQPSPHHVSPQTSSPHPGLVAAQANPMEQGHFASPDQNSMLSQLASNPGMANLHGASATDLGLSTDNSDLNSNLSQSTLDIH

Row | SMILES | Dmax [%] | DC50 [µM]
1 | CC(C)c1cc(-c2cccc3cc(-c4ccc(C(=O)NCc5ccc(-c6cnn(C7CCC(=O)NC7=O)c6)cc5)nc4)ncc23)cc2c1n(C)c(=O)n2C (stereo not drawn) [Example A33, N-(4-(1-(2,6-Dioxopiperidin-3-yl)-1H-pyrazol-4-yl)benzyl)-5-(8-(7-isopropyl-1,3-dimethyl-2-oxo-2,3-dihydro-1H-benzo[d]imidazol-5-yl)isoquinolin-3-yl)picolinamide] | < 20 | > 1
2 | CC(C)c1cc(N2CCCc3cc(-c4ccc(C(=O)NCc5ccc(-c6ccn(C7CCC(=O)NC7=O)n6)cc5)nc4)c(C(F)F)cc32)cc2c1n(C)c(=O)n2C (stereo not drawn) [Example A37, 5-(7-(Difluoromethyl)-1-(7-isopropyl-1,3-dimethyl-2-oxo-2,3-dihydro-1H-benzo[d]imidazol-5-yl)-1,2,3,4-tetrahydroquinolin-6-yl)-N-(4-(1-(2,6-dioxopiperidin-3-yl)-1H-pyrazol-3-yl)benzyl)picolinamide] | < 20 | > 1
3 | CC(C)c1cc(-c2cccc3cc(-c4ccc(C(=O)NCC#Cc5ccc6c(c5)ncn6C5CCC(=O)NC5=O)nc4)ncc23)cc2c1n(C)c(=O)n2C (stereo not drawn) [Example A38, N-(3-(1-(2,6-Dioxopiperidin-3-yl)-1H-benzo[d]imidazol-5-yl)prop-2-yn-1-yl)-5-(8-(7-isopropyl-1,3-dimethyl-2-oxo-2,3-dihydro-1H-benzo[d]imidazol-5-yl)isoquinolin-3-yl)picolinamide] | < 20 | > 1
4 | Cc1cc(-c2ccc(N(C)c3cc(C4=CCOCC4)c4c(c3)n(C)c(=O)n4C)cn2)cnc1C(=O)NCC#Cc1cccc(NC2CCC(=O)NC2=O)c1 (stereo not drawn) [Example A40, 5-((7-(3,6-dihydro-2H-pyran-4-yl)-1,3-dimethyl-2-oxo-2,3-dihydro-1H-benzo[d]imidazol-5-yl)(methyl)amino)-N-(3-(3-((2,6-dioxopiperidin-3-yl)amino)phenyl)prop-2-yn-1-yl)-5′-methyl-[2,3′-bipyridine]-6′-carboxamide] | > 80 | 0.001 to 0.0099
5 | Cc1cc(-c2ccc(N(C)c3cc(C(C)C)c4c(c3)n(C)c(=O)n4C)cc2C(F)F)cnc1C(=O)NCC#Cc1cccc(NC2CCC(=O)NC2=O)c1 (stereo not drawn) [Example A41, 5-(2-(difluoromethyl)-4-((7-isopropyl-1,3-dimethyl-2-oxo-2,3-dihydro-1H-benzo[d]imidazol-5-yl) (methyl)amino)phenyl)-N-(3-(3-((2,6-dioxopiperidin-3-yl)amino)phenyl)-prop-2-yn-1-yl)-3-methylpicolinamide] | > 80 | 0.01 to 0.099
6 | Cc1cc(-n2ccc(N(C)c3cc(C(C)C)c4c(c3)n(C)c(=O)n4C)cc2=O)cnc1C(=O)NCC#Cc1cccc(NC2CCC(=O)NC2=O)c1 (stereo not drawn) [Example A42, N-(3-(3-((2,6-dioxopiperidin-3-yl)amino)phenyl)prop-2-yn-1-yl)-4-((7-isopropyl-1,3-dimethyl-2-oxo-2,3-dihydro-1H-benzo [d]imidazol-5-yl)(methyl)amino)-5′-methyl-2-oxo-2H-[1,3′-bipyridine]-6′-carboxamide] | > 80 | 0.001 to 0.0099
7 | Cc1cc(-c2ccc(N(C)c3cc(C(C)C)c4c(c3)n(C)c(=O)n4C)cc2)cnc1C(=O)NCC#Cc1cccc(NC2CCC(=O)NC2=O)c1 (stereo not drawn) [Example A43, N-(3-(3-((2,6-dioxopiperidin-3-yl)amino)phenyl)prop-2-yn-1-yl)-5-(4-((7-isopropyl-1,3-dimethyl-2-oxo-2,3-dihydro-1H-benzo [d]imidazol-5-yl) (methyl)amino)phenyl)-3-methylpicolinamide] | 60 to 79 | 0.1 to 0.999
8 | Cc1cc(-c2ccc(N(C)c3cc(C(C)C)c4c(c3)n(C)c(=O)n4C)cc2Cl)cnc1C(=O)NCC#Cc1cccc(NC2CCC(=O)NC2=O)c1 (stereo not drawn) [Example A44, 5-(2-chloro-4-((7-isopropyl-1,3-dimethyl-2-oxo-2,3-dihydro-1H-benzo[d]imidazol-5-yl)(methyl)amino)phenyl)-N-(3-(3-((2,6-dioxopiperidin-3-yl)amino)phenyl)prop-2-yn-1-yl)-3-methylpicolinamide] | 60 to 79 | 0.1 to 0.999
9 | Cc1cc(-c2ccc(N(C)c3cc(C(C)C)c4c(c3)n(C)c(=O)n4C)cc2C#N)cnc1C(=O)NCC#Cc1cccc(NC2CCC(=O)NC2=O)c1 (stereo not drawn) [Example A46, 5-(2-cyano-4-((7-isopropyl-1,3-dimethyl-2-oxo-2,3-dihydro-1H-benzo[d]imidazol-5-yl)(methyl)amino)phenyl)-N-(3-(3-((2,6-dioxopiperidin-3-yl)amino)phenyl)prop-2-yn-1-yl)-3-methylpicolinamide] | > 80 | 0.01 to 0.099
10 | Cc1cc(-c2ncc(N(C)c3cc(C(C)C)c4c(c3)n(C)c(=O)n4C)cc2F)cnc1C(=O)NCC#Cc1cccc(NC2CCC(=O)NC2=O)c1 (stereo not drawn) [Example A47, N-(3-(3-((2,6-dioxopiperidin-3-yl)amino)phenyl)prop-2-yn-1-yl)-3-fluoro-5-((7-isopropyl-1,3-dimethyl-2-oxo-2,3-dihydro-1H-benzo [d]imidazol-5-yl)(methyl)amino)-5′-methyl-[2,3′-bipyridine]-6′-carboxamide] | > 80 | 0.01 to 0.099
11 | Cc1cc(-c2ccc(N(C)c3cc(C(C)C)c4c(c3)n(C)c(=O)n4C)cc2C(F)(F)F)cnc1C(=O)NCC#Cc1cccc(NC2CCC(=O)NC2=O)c1 (stereo not drawn) [Example A48, N-(3-(3-((2,6-dioxopiperidin-3-yl)amino)phenyl)prop-2-yn-1-yl)-5-(4-((7-isopropyl-1,3-dimethyl-2-oxo-2,3-dihydro-1H-benzo [d]imidazol-5-yl)(methyl)amino)-2-(trifluoromethyl)phenyl)-3-methylpicolinamide] | 60 to 79 | 0.01 to 0.099
12 | COc1cc(-c2ccc(N(C)c3cc(C(C)C)c4c(c3)n(C)c(=O)n4C)cn2)cnc1C(=O)NCC#Cc1cccc(NC2CCC(=O)NC2=O)c1 (stereo not drawn) [Example A49, N-(3-(3-((2,6-dioxopiperidin-3-yl)amino)phenyl)prop-2-yn-1-yl)-5-((7-isopropyl-1,3-dimethyl-2-oxo-2,3-dihydro-1H-benzo [d]imidazol-5-yl) (methyl)amino)-5′-methoxy-[2,3′-bipyridine]-6′-carboxamide] | > 80 | 0.01 to 0.099
13 | Cc1cc(-c2cnc(N(C)c3cc(C(C)C)c4c(c3)n(C)c(=O)n4C)cn2)cnc1C(=O)NCC#Cc1cccc(NC2CCC(=O)NC2=O)c1 (stereo not drawn) [Example A50, N-(3-(3-((2,6-dioxopiperidin-3-yl)amino)phenyl)prop-2-yn-1-yl)-5-(5-((7-isopropyl-1,3-dimethyl-2-oxo-2,3-dihydro-1H-benzo [d]imidazol-5-yl)(methyl)amino)pyrazin-2-yl)-3-methylpicolinamide] | > 80 | 0.01 to 0.099
14 | Cc1cc(-c2ccc(N(c3cc(C(C)C)c4c(c3)n(C)c(=O)n4C)C(F)(F)F)cn2)cnc1C(=O)NCC#Cc1cccc(NC2CCC(=O)NC2=O)c1 (stereo not drawn) [Example A52, N-(3-(3-((2,6-dioxopiperidin-3-yl)amino)phenyl)prop-2-yn-1-yl)-5-((7-isopropyl-1,3-dimethyl-2-oxo-2,3-dihydro-1H-benzo [d]imidazol-5-yl) (trifluoromethyl)amino)-5′-methyl-[2,3′-bipyridine]-6′-carboxamide] | 60 to 79 | 0.1 to 0.999
15 | Cc1cc(-c2ccc(Nc3cc4c(c(C(C)C)n3)n(C)c(=O)n4C)cn2)cnc1C(=O)NCC#Cc1ccc2occ(C3CCC(=O)NC3=O)c2c1 (stereo not drawn) [Example A56, N-(3-(3-(2,6-dioxopiperidin-3-yl)benzofuran-5-yl)prop-2-yn-1-yl)-5-((4-isopropyl-1,3-dimethyl-2-oxo-2,3-dihydro-1H-imidazo[4,5-c]pyridin-6-yl)amino)-5′-methyl-[2,3′-bipyridine]-6′-carboxamide] | < 20 | > 1
16 | CC(C)c1cc(N(C)c2cnc(-c3ccc(C(=O)NCC#Cc4ccc5occ(C6CCC(=O)NC6=O)c5c4)nc3)cn2)cc2c1n(C)c(=O)n2C (stereo not drawn) [Example A59, N-(3-(3-(2,6-dioxopiperidin-3-yl)benzofuran-5-yl)prop-2-yn-1-yl)-5-(5-((7-isopropyl-1,3-dimethyl-2-oxo-2,3-dihydro-1H-benzo [d]imidazol-5-yl)(methyl)amino)pyrazin-2-yl)picolinamide] | > 80 | 0.001 to 0.0099
17 | Cc1cc(-c2ccc(N(C)c3cc4c(c(C(C)C)n3)n(C)c(=O)n4C)cn2)cnc1C(=O)NCC#Cc1ccc2occ(C3CCC(=O)NC3=O)c2c1 (stereo not drawn) [Example A60, N-(3-(3-(2,6-dioxopiperidin-3-yl)benzofuran-5-yl)prop-2-yn-1-yl)-5-((4-isopropyl-1,3-dimethyl-2-oxo-2,3-dihydro-1H-imidazo[4,5-c]pyridin-6-yl)(methyl)amino)-5′-methyl-[2,3′-bipyridine]-6′-carboxamide] | < 20 | > 1
18 | Cc1cc(-c2cc3cccc(-c4ccc5c(c4)n(C)c(=O)n5C)c3cn2)cnc1C(=O)NCC#Cc1ccc2occ([C@H]3CCC(=O)NC3=O)c2c1 [Example A62, (R)-5-(8-(1,3-dimethyl-2-oxo-2,3-dihydro-1H-benzo[d]imidazol-5-yl)isoquinolin-3-yl)-N-(3-(3-(2,6-dioxo-piperidin-3-yl)benzofuran-5-yl)prop-2-yn-1-yl)-3-methylpicolinamide] | > 80 | 0.001 to 0.0099
